Active and inactive are the calls of the source. The calls are words filed in the database; no cut-off is given here.
How the values were obtained:
MCF7 [1] = assay: Antiproliferative activity against human MCF7 cells assessed as inhibition of cell growth measured after 48 hrs by MTT assay; format: functional, cell-based; details: MCF7, 48 h
MDA-MB-231 = assay: Antiproliferative activity against human MDA-MB-231 cells assessed as inhibition of cell growth measured after 48 hrs by MTT assay; format: functional, cell-based; details: MDA-MB-231, 48 h
MCF-10A = assay: Cytotoxicity against human MCF-10A cells assessed as reduction in cell viability measured after 48 hrs by MTT assay; format: cell-based
MCF7 [2] = assay: Inhibition of cell proliferation in human MCF7 cells assessed as increase in intracellular NO production at 25 uM measured after 2.5 hrs by nitric oxide assay; format: functional, cell-based

| SMILES | IC50 (MCF7 [1]) [nM] | IC50 (MDA-MB-231) [nM] | IC50 (MCF-10A) [nM] | Activity (MCF7 [2]) |
| --- | --- | --- | --- | --- |
| COc1cc2cc(C(=O)NCCc3ccccc3)c(=O)oc2cc1OCCCOc1no[n+]([O-])c1S(=O)(=O)c1ccccc1 | 640 | 980 | 6330 | Active |
| COc1ccc(CNC(=O)c2cc3cc(OC)c(OCCCOc4no[n+]([O-])c4S(=O)(=O)c4ccccc4)cc3oc2=O)cc1 | 560 | 780 | 5950 | Active |
| COc1ccc(CCNC(=O)c2cc3cc(OC)c(OCCCOc4no[n+]([O-])c4S(=O)(=O)c4ccccc4)cc3oc2=O)cc1 | 750 | 1540 | 5370 | Active |

Now from value to compound, other results behind:

| IC50 (MCF7 [1]) [nM] | IC50 (MDA-MB-231) [nM] | SMILES | IC50 (MCF-10A) [nM] | Activity (MCF7 [2]) |
| --- | --- | --- | --- | --- |
| 870 | 760 | COc1cc2cc(C(=O)NCCCc3ccccc3)c(=O)oc2cc1OCCCOc1no[n+]([O-])c1S(=O)(=O)c1ccccc1 | 5330 | Active |
| > 25000 | > 25000 | COc1cc2ccc(=O)oc2cc1O [SCOPOLETIN] | > 25000 | – |
| 410 | 730 | COc1ccc(NC(=O)c2cc3cc(OC)c(OCCCOc4no[n+]([O-])c4S(=O)(=O)c4ccccc4)cc3oc2=O)cc1 | 5470 | Active |
| 860 | 1200 | COc1cc2cc(C(=O)Nc3ccc(F)cc3)c(=O)oc2cc1OCCCOc1no[n+]([O-])c1S(=O)(=O)c1ccccc1 | 7210 | Active |

Reference: ChEMBL document CHEMBL4842344, “Design, synthesis and biological activity evaluation of novel scopoletin-NO donor derivatives against MCF-7 human breast cancer in vitro and in vivo” (Eur J Med Chem, 2021)
